Measurements as given in patent US10471010B2, “Liposomal corticosteroids for treatment of inflammatory disorders in humans” (ENCELADUS PHARMACEUTICALS B.V., priority 2011, dated 2019).

Columns and labels:
[1] = potency of prednisolone set to 1; cited from earlier work
[2] = system: rats with adjuvant-induced arthritis; test: Rat adjuvant-induced arthritis, paw inflammation scores; type: in vivo, Lewis rats; settings: for effect on the course of the disease: single injection, equal dose (10 mg/kg), 10 mg/kg
Protocol: Lewis rats were immunized subcutaneously at the tail base with heat-inactivated Mycobacterium tuberculosis in incomplete Freund's adjuvant. […] Assessment of the disease was performed by visually scoring paw inflammation severity, maximum score 4 per paw, and measuring disease-induced body weight loss. The therapeutic efficacy of liposomal prednisolone phosphate on these variables was compared with equal doses unencapsulated drug. Rats were treated when the average score >6 (at day 14 or 15 after disease induction).

Structure (SMILES)	potency ratio as compared to prednisolone [1]	average inflammation scores ([2]; 20 mg/kg daily for 7 days, day 15 until day 21, from average 6.5 on day 14)	effect of repeated daily treatment ([2]; repeated daily treatment)	effect on the course of the disease [2]	effect on the course of the disease ([2]; listed as free prednisolone)
C[C@]12C=CC(=O)C=C1CC[C@H]1[C@@H]3C[C@@H](O)[C@](O)(C(=O)CO)[C@@]3(C)C[C@H](O)[C@@]12F [triamcinolone]	1.25				
CC(=O)OCC(=O)[C@@]1(O)CC[C@H]2[C@@H]3CCC4=CC(=O)CC[C@]4(C)[C@@]3(F)[C@@H](O)C[C@@]21C [fludrocortisone acetate]	3.5				
C[C@]12C=CC(=O)C=C1CC[C@@H]1[C@@H]2[C@@H](O)C[C@@]2(C)[C@H]1CC[C@]2(O)C(=O)COP(=O)(O)O [Unencapsulated prednisolone phosphate, prednisolone phosphate]		around 5.0	short-lasting moderate effect	did not significantly alter the course of the disease	not effective
